Source: patent publication US20260365622A1, “CRYSTALLINE CARBAZOLE DERIVATIVE AND METHODS OF MAKING THEREOF” (Raziel Therapeutics Ltd., priority 2022, published 2026)
Each block holds one molecule with its values, some of them ahead of it.

Columns and labels:
Assay type in all cases: physicochemical
[1] = Karl Fischer (KF) coulometric titration; conditions: in duplicate
Description: Water content of crystalline Compound A was determined using KF Coulometric Titration by either direct addition or liquid extraction.
10-20 mg of crystalline Compound A was weighed into a vial. The solid was then manually introduced into the titration cell of a Mettler Toledo C30 Compact Titrator. The vial was back-weighed after the addition of the solid and the weight of the added solid entered on the instrument. Titration was initiated once the sample had fully dissolved in the cell. The water content was calculated automatically by the instrument as a percentage and the data printed. The analysis was carried out in duplicate.
10-20 mg of crystalline Compound A was weighed into a vial, 10-15 mL of the Coulomat was extracted from the cell of a Mettler Toledo C30 Compact Titrator and added to the vial containing the sample. The solid was dissolved by shaking manually or using ultrasonic bath. When complete dissolution was achieved, the solution was injected back into the cell titrator and the weight of the sample added was entered on the instrument. The water content was calculated automatically by the instrument as a percentage and the data printed. The analysis was carried out in duplicate.

[2] = Conversion of Compound A Form 4 on standing in humid conditions; conditions: standing at 25 °C and 40 °C and at >30% RH
[3] = Variable humidity X-ray powder diffraction (VH-XRPD); conditions: desorption phase, 90% RH to 20% RH; starting from Form 2
Description: A known mass of 5-(3,6-dibromo-9H-carbazol-9-yl)-N,N,N-trimethylpentan-1-aminium chloride Form 2 (Compound A Form 2) was analyzed by variable humidity X-ray powder diffraction (VH-XRPD) on a Philips X'Pert Pro Multipurpose diffractometer quipped with a humidity chamber. The samples were scanned between 4 and 35.99° 2θ using Cu K radiation (α1 λ=1.54060 Å; α2=1.54443 Å; β=1.39225 Å; α1:α2 ratio=0.5) running in Bragg-Brentano geometry (step size 0.008° 2θ) using 40 kV/40 mA generator settings. Measurements were performed between 7-90% RH and XRPD scans were collected at each humidity step. The VH-XRPD analysis was conducted an absorption phase between ambient and 90% RH, a desorption phase between 90% RH and 7% RH, and a second absorption phase between 20% and 40% RH.

[4] = Long-term stability tests of crystalline Compound A Form 1 (Table 6); conditions: for Purity after storage: HPLC
Description: (§1) XRPD analysis was carried out on a PANalytical X'pert Pro with PIXcel detector (128 channels), scanning the samples between 3 and 35° […]. The material was gently ground (where required) to release any agglomerates and loaded onto a multi-well plate with Kapton or Mylar polymer film to support the sample. The multi-well plate was then placed into the diffractometer and analyzed using Cu K radiation (α1 λ=1.54060 Å; α2 λ=1.54443 Å; β λ=1.39225 Å; α1:α2 ratio=0.5) running in transmission mode (step size 0.0130° 2θ, step time 18.87 s) using 40 kV/40 mA generator settings. Data were visualized and images generated using the HighScore Plus 4.7 desktop application (PANalytical, 2017).
Crystalline Compound A (Form 1) was not changed after storage at 25 °C/60% RH for 36 months or storage at 40 °C/75% RH for 6 months. Purity was determined by HPLC analysis.

[5] = Accelerated stability tests of crystalline Compound A Form 1 (Table 5); conditions: 7 days; for Purity after storage: HPLC
Description: as §1
Crystalline Compound A (Form 1) was not changed after storage at room temperature for 7 days, storage at 40 °C/75% RH for 7 days, or storage at 80 °C for 7 days. Purity was determined by HPLC analysis.

[6] = 25 °C/60% RH (closed container), 24 months

Water content ([1]; listed as Form 3): 5.3% w/w %
Compound: C[N+](C)(C)CCCCCn1c2ccc(Br)cc2c2cc(Br)ccc21.[Cl-] [Compound A Form 3, 5-(3,6-dibromo-9H-carbazol-9-yl)-N,N,N-trimethylpentan-1-aminium chloride]

Water content ([1]; listed as Form 4): 1% w/w %
Compound: C[N+](C)(C)CCCCCn1c2ccc(Br)cc2c2cc(Br)ccc21.[Cl-] [Compound A Form 4, 5-(3,6-dibromo-9H-carbazol-9-yl)-N,N,N-trimethylpentan-1-aminium chloride]
Conversion of crystalline form [2]: converted to crystalline Form 1 of Compound A

Compound: C[N+](C)(C)CCCCCn1c2ccc(Br)cc2c2cc(Br)ccc21.[Cl-] [Compound A Form 2, 5-(3,6-dibromo-9H-carbazol-9-yl)-N,N,N-trimethylpentan-1-aminium chloride]
Crystalline form observed [3]: Crystalline Form 1 of Compound A was observed during the desorption phase between 90% RH and 20% RH

XRPD after storage ([4]; 25 °C/60% RH (closed container), 3 months): Unchanged | Purity after storage ([4]; 25 °C/60% RH (closed container), 3 months, 131040 min): 99.7% | XRPD after storage ([4]; 25 °C/60% RH (closed container), 6 months): Unchanged | Purity after storage ([4]; 25 °C/60% RH (closed container), 6 months, 263520 min): 99.7% | XRPD after storage ([4]; 25 °C/60% RH (closed container), 12 months): Unchanged | Purity after storage ([4]; 25 °C/60% RH (closed container), 12 months, 525600 min): 99.7% | XRPD after storage [4, 6]: Unchanged | Purity after storage [4, 6]: 99.7% | XRPD after storage ([4]; 25 °C/60% RH (closed container), 36 months): Unchanged | Purity after storage ([4]; 25 °C/60% RH (closed container), 36 months, 1.5768e+06 min): 99.7% | Change after storage ([4]; 25 °C/60% RH, 36 months): not changed | XRPD after storage ([4]; 40 °C/75% RH (closed container), 1 month): Unchanged | Purity after storage ([4]; 40 °C/75% RH (closed container), 1 month, 43200 min): 99.7% | XRPD after storage ([4]; 40 °C/75% RH (closed container), 3 months): Unchanged | Purity after storage ([4]; 40 °C/75% RH (closed container), 3 months, 131040 min): 99.7% | XRPD after storage ([4]; 40 °C/75% RH (closed container), 6 months): Unchanged | Purity after storage ([4]; 40 °C/75% RH (closed container), 6 months, 263520 min): 99.8% | Change after storage ([4]; 40 °C/75% RH, 6 months): not changed | XRPD after storage ([5]; 40 °C/75% RH (open vial)): Unchanged | Purity after storage ([5]; 40 °C/75% RH (open vial)): 99.93% | Change after storage ([5]; 40 °C/75% RH): not changed | XRPD after storage ([5]; 80 °C (closed vial)): Unchanged | Purity after storage ([5]; 80 °C (closed vial)): 99.93% | Change after storage ([5]; 80 °C): not changed | XRPD after storage ([5]; Room Temperature (open vial)): Unchanged | Purity after storage ([5]; Room Temperature (open vial)): 99.93% | Change after storage ([5]; room temperature): not changed | Water content ([1]; listed as Form 1): 4.38% w/w %
Compound: C[N+](C)(C)CCCCCn1c2ccc(Br)cc2c2cc(Br)ccc21.[Cl-] [Compound A Form 1, 5-(3,6-dibromo-9H-carbazol-9-yl)-N,N,N-trimethylpentan-1-aminium chloride]
